Source: patent US11628179B2, “Compounds for treating and preventing extracellular histone mediated pathologies” (priority 2017, dated 2023)
Several values for one entry are separate records, joined by “and”; a condition that tells them apart may be missing. Equal values may be shown once.

Legend:
mice = assay: In-vivo histone toxicity assay, organ damage markers at 4 hr; set-up: species or system mouse; conditions: 6.25, 25 and 100 mg/kg i.p. 10 min prior to histones 50 mg/kg i.v.; blood at 4 hr
human platelets = assay: Histone-induced platelet aggregation; assay type: cell-based; conditions: compounds added prior to histones 150 μg/mL
[1] = tested on: Human platelets in whole blood; assay: Histone-induced platelet degranulation (ATP release); assay type: cell-based; conditions: compounds added prior to histones 400 μg/mL
human liver microsomes = assay: Phase I metabolism in human liver microsomes; conditions: 1 μM, 1 h incubation, NADPH, 0.3 mg/ml microsomes
Method: (§1) A stock concentration of 25 μM mCBS dissolved in 50% methanol in water was added to the reaction tubes (10 μL). […] Samples were then vortex-mixed and centrifuged for 10 min at 14,000 rpm. Half of the samples (375 μl) were transferred to glass tubes and evaporated under a stream of nitrogen and at 37° C. Samples were then reconstituted in mobile phase A (250 μL). The final concentration of mCBS was 1 μM in the incubation medium.
(§2) The reaction mixtures were incubated for 1 hour with sampling in triplicate at 0, 15, 30, 45 and 60 min time points. A negative control (no NADPH) was used in parallel with the study samples. A positive control; midazolam, 25 μM (10 μL) was incubated in the same condition for 1 h. The final concentration of midazolam was 1 μM in the incubation medium

dog liver microsomes = assay: Phase I metabolism in dog liver microsomes; conditions: 1 μM, 1 h incubation, NADPH, 0.3 mg/ml microsomes
Method: as §1, §2

rat liver microsomes = assay: Phase I metabolism in rat liver microsomes; conditions: 1 μM, 1 h incubation, NADPH, 0.3 mg/ml microsomes
Method: as §1, §2

Sprague Dawley rats = tested on: Sprague Dawley rats
Method: This study examined acute toxicity from single IV administration of mCBS in rats with doses up to 1000 mg/kg.
The acute toxicity of β-O-methyl cellobioside sulfate (mCBS) was assessed in Sprague Dawley rats following intravenous administration of a single bolus dose. A total of five groups of n=3 adult female rats were treated with 10, 30, 100, 300 and 1000 mg/kg doses of mCBS test item in the form of the sodium salt (mCBS.Na) in this dose range finding study. […] The rats were then observed for 7 days prior to termination without necropsy.

Solubility in vehicle = assay type: physicochemical; conditions: in water/aqueous
Method: The STX studies described below were carried out inter alia to provide a preliminary understanding of the toxicity and PK profile of β-O-methyl cellobioside sulfate compounds such as mCBS.Na utilised in the present invention.

Sprague-Dawley rats = conditions: 5575 mg/kg/day of mCBS (free base), continuous IV infusion 7 days
Method: The objective of these studies was to determine the toxicity of the test item, mCBS, when administered by continuous (24 hours/day) intravenous infusion through a surgically implanted catheter for 7 consecutive days to Sprague-Dawley rats.
The test and control item dose formulations of mCBS (in the form of the heptasodium salt mCBS.Na) were administered to groups of rats by continuous (24 hours/day) intravenous infusion for 7 consecutive days as described in the Table 14 below.
Parameters monitored during this study included mortality, clinical observations, body weights and food consumption. In addition, hematology, coagulation and clinical chemistry parameters were evaluated on Day 9. Blood samples were collected from the animals at timepoints relative to the start of the infusion for analysis of test item concentration in plasma. At termination (Day 9), all animals were euthanized and subjected to a gross necropsy examination. Organ weights were measured on selected organs and a selected list of tissues, including gross lesions, were retained and prepared for microscopic evaluation.

human RBCs [2] = assay: Histone-induced RBC fragility / lysis under shear; assay type: cell-based; conditions: 0-200 μg/mL prior to 400 μg/mL histones 60 min; 100 mm/s, 40× repetitions
Wistar rats [3] = assay: Rat caecal ligation and puncture (CLP), severe sepsis; assay type: in vivo
Method: Rat caecal ligation and puncture (CLP) assay for sepsis. The CLP assay was performed in male Wistar rats as previously described (see Hubbard, W. J. et al. Cecal ligation and puncture. Shock 24 Suppl 1, 52-57 (2005).). Test compounds (50 mg kg^−1) dissolved in saline or an equivalent volume of saline only (Control cohort) were administered i.p. 5 min pre-CLP and 5, 10 and 15 h post-op until cessation of the experiment at 20 h. Sham-CLP rats underwent the same procedure, however, the caecum was not ligated or punctured and these rats received saline at the same times as above. At the conclusion of the experimental time period (20 h) or when morbidity required ethical euthanasia, the rats were anaesthetised and blood was collected via cardiac puncture into EDTA for subsequent analysis of liver (ALT) and kidney (creatinine) function by the Department of Pathology, The Canberra Hospital. The propensity for clots to form within the blood samples of the saline treated control CLP animals (despite the presence of EDTA) prevented successful analysis of plasma samples from all animals.

[4] = Lipid bilayer assay (histone rupture of bilayers)
Method: Lipid bilayer assays. Artificial lipid bilayers, prepared as previously described (Rebbeck, R. T. et al. The beta (1a) subunit of the skeletal DHPR binds to skeletal RyR1 and activates the channel via its 35-residue C-terminal tail. Biophys J 100, 922-930, doi:10.1016/j.bpj.2011.01.022 (2011).), separated symmetrical 150 mM or 250 mM KCl (pH ˜5.5) solutions. Histones (1 μM, 15.2 μg ml^−1) were added to bilayers alone or after 0.5-3 h incubation with 10 μM CBS (3.5 μg ml^−1) or 10 μM MTS (5.1 μg ml^−1) at −20° C. Current was recorded continuously after histone addition until the bilayers broke or the experiment was terminated.
To examine this possibility artificial lipid bilayers were prepared and their susceptibility to histone rupture detected by changes in current across the bilayers.

[5] = mCBS vs CBS levels in bulk powder stored at −20° C. (CAD); assay type: physicochemical
Method: Table 2b compares mCBS vs CBS levels in a representative batch of bulk powder when stored at −20° C. over 24 months. T is for time in months. T=0 or T0 represents analytical results carried out on completion of manufacture. Subsequent analysis indicated are relative to the initial analysis of the drug powder or formulation (e.g. […] Analytical method employing CAD (Charged Aerosol Detector) was used to measure the level of mCBS purity and its impurities and expressed as CAD %.

human RBCs [6] = assay: Histone-induced RBC aggregation (flow cytometry autofluorescence, SEM); assay type: cell-based; conditions: 0-200 μg/mL added prior to 400 μg/mL histones
[7] = mCBS vs CBS levels in phosphate buffered pH 7.5 clinical trial formulation stored at 2-8° C. (CAD); assay type: physicochemical
C57BL/6 mice = assay: Murine deep vein thrombosis (DVT) model, histone-mediated; assay type: in vivo, mouse; conditions: CBS 50 mg/kg i.v. 5 min after histones 10 mg/kg i.v., 48 h
Method: Murine deep vein thrombosis (DVT) model. The procedure used is largely as previously described (see Brill, A. et al. Neutrophil extracellular traps promote deep vein thrombosis in mice. J Thromb Haemost 10, 136-144, doi: 10.1111/j.1538-7836.2011.04544.x (2012)). […] The peritoneum and skin were closed following which all mice received an i.v. injection of histones via the tail vein (10 mg kg^−1) or an equivalent volume of saline followed 5 min later by an i.v. injection of test compounds (50 mg kg^−1) or saline. Mice were monitored for 48 h after which they were re-anesthetised, re-opened and any thrombi that had developed distal to the IVC stenosis were removed for analysis. Sham operated control animals received laparotomy and 90% ligation of the IVC, however the ligation was removed immediately after occlusion of the IVC.

[8] = Stability of mCBS vs CBS in formulated clinical material (HPLC); assay type: physicochemical; conditions: formulated clinical material in phosphate buffer, 5±3° C., 25±2° C./60% RH, 40±2° C./75% RH
Method: Stability studies were carried out at 5±3° C., 25±2° C./60% RH and 40±2° C./75% RH ° C. conditions. Levels of both mCBS and cellobiose sulfate (CBS) were tracked in formulated clinical material (i.e. mCBS in phosphate buffer) via HPLC.

Wistar rats [9] = assay: Rat cardiac IRI model; assay type: in vivo; conditions: 30 mg kg−1 into left ventricle 5 min prior to reperfusion
Method: Rat cardiac IRI model. […] Male Wistar rats were anaesthetised with isofluorane, intubated via tracheostomy and ventilated with a tidal volume of 1 ml 150 g^−1 and a respiratory rate of 65 breaths min^−1. Supplemental oxygen was delivered at a FiO2 of ˜30%. A left hemi-thoracotomy was performed to enable visualisation of the left ventricle. The left coronary arterial plexus (LCA) was occluded using an atraumatic snare for 30 min prior to reperfusion for 30 min. Ischemia was confirmed by myocardial hyperaemia. The test compounds (30 mg kg^−1) or an equivalent volume (200 μl) of saline were injected into the lumen of the left ventricle (confirmed with aspiration) 5 min prior to the release of the snare for the reperfusion phase.
At the conclusion of reperfusion (30 min), Thioflavin S (1 ml 200 g^−1 of body weight) was slowly injected into the lumen of the left ventricle, to define the territory of microvascular obstruction (MVO) within the ischemic zone (IZ). The IZ territory was determined by the re-occlusion of the atraumatic snare and infusion of blue microspheres into the left ventricle (Unisperse Blue, BASF), distributed within solutions via ultrasonication using a CD-6800 (Unisonics) sonicator. […] Planimetry (Image J, Freeware) was used to quantify the areas of the IZ, MVO and necrosis.

whole blood coagulation = assay: ROTEM whole blood coagulation analysis (anticoagulant effect of compounds); conditions: NATEM assay, 50 and 100 μg/mL

O=C[C@H](O)[C@@H](O)[C@H](O[C@@H]1O[C@H](CO)[C@@H](O)[C@H](O)[C@H]1O)[C@H](O)CO [CB, cellobiose]
protection from histone-induced organ damage (LDH, ALT, creatinine) (mice): inactive | histone-induced platelet aggregation (human platelets): no inhibitory activity | histone-induced platelet degranulation (ATP release) [1]: no inhibitory activity

Cc1ncc2n1-c1ccc(Cl)cc1C(c1ccccc1F)=NC2 [midazolam]
phase I metabolic stability (human liver microsomes): almost completely metabolised | phase I metabolic stability (dog liver microsomes): almost completely metabolised | phase I metabolic stability (rat liver microsomes): almost completely metabolised

Sodium β-O-Methyl Cellobioside Sulfate [mCBS.Na]
MTD estimate from potency assessment, sodium salt (Sprague Dawley rats; IV bolus single and 7-day studies, corrected for potency): ~745 mg/kg | maximum tolerated dose (MTD) (Sprague Dawley rats; single IV bolus, female rats, 7 days observation, dose as sodium salt): 1000 mg/kg | Solubility in Vehicle (Solubility in vehicle): ~250 mg/mL in water/aqueous | mortality (Sprague-Dawley rats): death of one female

cellobiose sulfate [CBS]
inhibition of histone-induced RBC lysis under shear (human RBCs [2]): inhibit histone-induced lysis under shear in a dose-dependent manner | high ALT and creatinine levels (liver and kidney damage) (Wistar rats [3]; CBS treated animals): not seen | mortality (Wistar rats [3]; CBS treatment group vs controls): no mortalities | protection from histone-induced organ damage (LDH, ALT, creatinine) (mice): protects animals from histone-mediated injury | incidence of rapid bilayer rupture ([4]; histones 1 μM + CBS, 3 of 52 bilayers, within 0.3 to 0.5 min): 5.8% | average bilayer lifetime ([4]; histones 1 μM in the presence of CBS 10 μM): 18 ± 4 min and 36 ± 5 min | stability when stored in powder ([5]; 24 months): stable | level in bulk powder ([5]; T0 (months)): 0.23 CAD % | level in bulk powder ([5]; T1): 0.25 CAD % | level in bulk powder ([5]; T3): 0.28 CAD % | level in bulk powder ([5]; T6): 0.32 CAD % | level in bulk powder ([5]; T9): 0.36 CAD % | level in bulk powder ([5]; T12): 0.36 CAD % | level in bulk powder ([5]; T18): 0.36 CAD % | level in bulk powder ([5]; T24): 0.29 CAD % | inhibition of histone-induced RBC aggregation (human RBCs [6]): inhibit histone-induced RBC aggregation in a dose dependent manner | level in phosphate buffered pH 7.5 formulation ([7]; 2-8° C., T0 (months)): 0.25 CAD % | level in phosphate buffered pH 7.5 formulation ([7]; 2-8° C., T2): 0.03 CAD % | level in phosphate buffered pH 7.5 formulation ([7]; 2-8° C., T3): 0.07 CAD % | level in phosphate buffered pH 7.5 formulation ([7]; 2-8° C., T7): 0.03 CAD % | level in phosphate buffered pH 7.5 formulation ([7]; 2-8° C., T10): 0.04 CAD % | level in phosphate buffered pH 7.5 formulation ([7]; 2-8° C., T13): 0.04 CAD % | level in phosphate buffered pH 7.5 formulation ([7]; 2-8° C., T19): <0.03 CAD % | stability when stored in aqueous buffered solution ([7]; 2-8° C., over 18 months): highly unstable | level reduced to (detection limit) ([7]; aqueous buffered solution, within 3-6 month of storage at 2-8° C.): 0.03 CAD % | histone-mediated deep vein thrombosis (C57BL/6 mice): almost totally inhibited | level relative to starting amount (T=0) over time [8]: drops very rapidly and is almost gone by around 3 months | histone-induced platelet aggregation (human platelets): significantly reduced | area of microvascular obstruction (Wistar rats [9]): significantly reduced | reduction of myocardial necrosis in the ischemic zone (Wistar rats [9]): 50% | histone-induced platelet degranulation (ATP release) [1]: significantly reduced

melezitose sulfate
clot formation (whole blood coagulation): No clotting was detected | clot formation (whole blood coagulation; listed as melezitose): no clot was detected
